From patent publication US9684238B2, “Fluorene-type compound, photopolymerization initiator comprising said fluorene-type compound, and photosensitive composition containing said photopolymerization initiator” (TOKYO OHKA KOGYO CO., LTD., priority 2012, dated 2017)

Columns and labels:
[1] = Decomposition point by thermal analysis (TG-DTA); format: physicochemical; details: 5.0 mg
Method: The compounds 1, 2, 4, 6, 8, 9, 11, 12, 13, 15, 16, D-1, D-3, D-4, D-7, D-8, D-9, D-12, D-14, D-15, D-20, C-1, and C-2 were each subjected to measurement with a thermal analysis apparatus (TG-DTA) (manufactured by Rigaku Corporation, trade name: “Thermo Plus EVO TG 8120”) by using 5.0 mg thereof.

[2] = Solubility in PGME, PGMEA and ethyl lactate; format: physicochemical
[3] = Absorption coefficient (absorbance of 0.001% solution in tetrahydrofuran); format: physicochemical
How it was run: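 Absorbance of a 0.001% (wt/vol) solution in tetrahydrofuran recorded by spectrophotometer. Absorption maximum wavelength (λmax) taken from the spectrum within 280–400 nm.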

[4] = Average transmittance of composition; format: physicochemical; details: photosensitive composition, quartz cell, optical path length 1 cm
Method: The average transmittance (%) of each of the photosensitive resin compositions obtained in Examples 1 to 9, Examples 2-1 to 2-10, and Comparative Examples 1 and 2 in the range of from 400 nm to 700 nm was measured with a spectrophotometer (manufactured by Hitachi High-Technologies Corporation, trade name: “U-3900H”, quartz cell, optical path length; 1 cm).

[5] = Transmittance of transparent cured film; format: physicochemical
How it was run: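 Films cured at 80 mJ/cm^2 exposure, otherwise prepared as in the earlier film evaluation. Spectrophotometer read in quartz cell, 1 cm path, giving transmittance (%) at 400 nm and average transmittance (%) over 400–700 nm.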

[6] = Transparency: coloring of the photopolymerization initiator before and after exposure; format: physicochemical; details: 40 g/L in tetrahydrofuran; 365 nm UV, 850 to 2,550 mJ/cm^2; compared with compound C-1
Method: An influence on the coloring of a photopolymerization initiator after its exposure was confirmed because the photopolymerization initiator was required to have transparency. Specifically, as described below, the degrees of coloring (color change) of the photopolymerization initiator itself before and after its exposure were evaluated by measuring its absorbance. A 40 g/L solution of the compound 4 of Synthesis Example 4 in tetrahydrofuran was prepared, and the solution was loaded into a lidded UV cell made of quartz (12.5×12.5×58 mm) having an optical path length of 1 cm. The absorption spectrum of the solution before its exposure was measured with a spectrophotometer (manufactured by Hitachi High-Technologies Corporation, trade name: “U-3900H”). After that, the quartz surface of the UV cell was vertically irradiated with 850 mJ/cm^2 of UV light having a wavelength of 365 nm by using an exposure apparatus (manufactured by Ushio Inc., trade name: “[…]” (ML-251A/B) and optical unit (PM25C-100)), and the absorption spectrum of the solution was measured again. The foregoing operations were repeatedly performed, and a change in absorbance of the solution by UV irradiation was measured. […]
The axis of abscissa of the graph of FIG. 1(A) indicates the measurement wavelength (nm) of an absorption spectrum and the axis of ordinate thereof indicates an absorbance (Abs.) at the wavelength. […]

[7] = Evaluation 1: 20-μm pattern line width of transparent photosensitive composition; details: transparent composition, initiator 0.4 mmol
[8] = photopolymerization initiator containing the compound
[9] = 0.001% (wt/vol) solution in tetrahydrofuran
[10] = cured at exposure energy quantity 80 mJ/cm^2

Decomposition point [1]: 277.0 °C
solubility (in words) [2, 8]: additionally excellent solubility
Λ max (absorption maximum wavelength) ([3]; 0.001% (wt/vol) in tetrahydrofuran, from 280 nm to 400 nm): 330.5 nm
Absorption coefficient at 365 nm [3, 9]: 2.2 mL/mg/cm
Absorption coefficient at Λ max [3, 9]: 85.7 mL/mg/cm
Average transmittance (700 nm to 400 nm) Solution [4]: 96.3%
Average transmittance (700 nm to 400 nm) Transparent cured film [5, 10]: 99.9%
Transmittance (400 nm) Transparent cured film [5, 10]: 99.4%
transparency of photosensitive composition and formed product (in words) [5, 8]: additionally excellent transparency
influence on the coloring by the exposure [6]: small
Structure (SMILES): CCCC1(CCC)c2cc(C(=O)c3ccccc3C)ccc2-c2ccc(/C(C)=N/OC(C)=O)cc21 [Compound 4]
Solubility Ethyl lactate ([2]; in 100 parts by weight of ethyl lactate, room temperature): B (An amount in the range of from 5 parts by weight or more to less than 10 parts by weight of the photopolymerization initiator is dissolved.)
Solubility PGMEA ([2]; in 100 parts by weight of propylene glycol monomethyl ether acetate, room temperature): A (10 Parts by weight or more of the photopolymerization initiator is dissolved.)
Solubility PGME ([2]; in 100 parts by weight of propylene glycol monomethyl ether, room temperature): B (An amount in the range of from 5 parts by weight or more to less than 10 parts by weight of the photopolymerization initiator is dissolved.)
20-μm pattern line width ([7]; exposure energy quantity 10 mJ/cm^2): 19.4
20-μm pattern line width ([7]; exposure energy quantity 20 mJ/cm^2): 20.0
20-μm pattern line width ([7]; exposure energy quantity 40 mJ/cm^2): 21.3
20-μm pattern line width ([7]; exposure energy quantity 60 mJ/cm^2): 22.1
20-μm pattern line width ([7]; exposure energy quantity 80 mJ/cm^2): 22.4
